These results are taken from BindingDB's records for doi:10.1016/j.bmcl.2009.01.098 (Glaxosmithkline, 2009).

In general, Kd refers to the free concentration of one partner at which half of the binding sites on the other are occupied at equilibrium, for simple one-to-one binding.

For this assay, the target named is Muscarinic acetylcholine receptor M3 (Homo sapiens, UniProt P20309). As to the kind of experiment: Antagonist activity at human recombinant muscarinic M3 receptor expressed in CHO cells assessed as inhibition of acetylcholine-induced calcium mobilization by FLIPR based single concentration kinetic assay. A general note: Calcium assays in cells follow changes in intracellular calcium, usually with a dye or a luminescent sensor.
Muscarinic acetylcholine receptor M3, sequence (P20309 whole entry): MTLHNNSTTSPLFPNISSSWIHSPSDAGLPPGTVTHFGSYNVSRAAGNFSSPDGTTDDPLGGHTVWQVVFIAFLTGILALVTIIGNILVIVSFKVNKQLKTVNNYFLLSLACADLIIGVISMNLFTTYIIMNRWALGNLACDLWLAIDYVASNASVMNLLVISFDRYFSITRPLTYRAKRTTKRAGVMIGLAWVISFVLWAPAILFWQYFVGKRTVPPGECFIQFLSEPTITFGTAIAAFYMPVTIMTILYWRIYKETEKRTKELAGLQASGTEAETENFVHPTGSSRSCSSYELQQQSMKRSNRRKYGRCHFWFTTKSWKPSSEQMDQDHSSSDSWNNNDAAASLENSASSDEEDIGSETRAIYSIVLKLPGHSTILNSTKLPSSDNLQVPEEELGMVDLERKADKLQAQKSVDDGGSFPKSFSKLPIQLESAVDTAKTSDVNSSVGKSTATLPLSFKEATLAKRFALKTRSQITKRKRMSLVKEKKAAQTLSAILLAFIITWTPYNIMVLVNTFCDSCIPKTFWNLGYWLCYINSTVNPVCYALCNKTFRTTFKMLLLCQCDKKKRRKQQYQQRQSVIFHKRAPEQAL
For `CC1CN(Cc2cccc(-c3cc(CNC(=O)c4cccc(CN5CCN(C)CC5)c4)ccc3F)c2)CCN1` (stereo not drawn), the dissociation constant Kd is 0.0316 nM.
As for `CC1CN(Cc2cccc(-c3cc(CNC(=O)c4cccc(CN5CCN(CCCO)CC5)c4)ccc3F)c2)CCN1` (stereo not drawn), the Kd was found to be 0.0631 nM.
The value for `CC1CN(Cc2cccc(-c3cc(CNC(=O)c4cccc(CN5CCCN(C)CC5)c4)ccc3F)c2)CCN1` (stereo not drawn) was 0.251 nM; that for `CC1CN(Cc2cccc(-c3cc(CNC(=O)c4cccc(CN(C)CCCN(C)C)c4)ccc3F)c2)CCN1` (stereo not drawn) was 0.2 nM; that for `CC1CN(Cc2cccc(-c3cc(CNC(=O)c4cccc(CN5CCN(C=O)CC5)c4)ccc3F)c2)CCN1` (stereo not drawn) was 0.0794 nM.
The value for `CC1CN(Cc2cccc(-c3cc(CNC(=O)c4cccc(CN5CCOCC5)c4)ccc3F)c2)CCN1` (stereo not drawn) was 0.126 nM; that for `CC1CN(Cc2cccc(-c3cc(CNC(=O)c4cccc(CN5CCCCC5)c4)ccc3F)c2)CCN1` (stereo not drawn) was 0.631 nM.
As to `CC1CN(Cc2cccc(-c3cc(CNC(=O)c4cccc(CN(C)C)c4)ccc3F)c2)CCN1` (stereo not drawn), the dissociation constant (Kd) came out at 3.16 nM.
